Patent publication US20070243154A1, “Solubilization of acid ingredients” (L'OREAL, priority 2006, published 2007)

How the values were obtained:
[1] = Solubility of salicylic acid in organic compounds liquid at room temperature; format: physicochemical; details: dissolved at 60° C., cooled to room temperature, left 2 hours
Procedure: In this example, the solubility of salicylic acid in different liquid materials was compared with mineral oil.
Preparation of Highly Concentrated Salicylic Acid Solutions
Salicylic acid was mixed with various organic compounds, liquid at room temperature, and heated to 60° C. The solution was stirred until all the salicylic acid was dissolved and then cooled to room temperature with stirring. The solution was left undisturbed for 2 hours and observed for crystallization.
The results are expressed by weight of the acid in the dissolving organic compound liquid at room temperature.

[2] = cited from earlier work

**Q.** Which results are given for O=C(O)c1ccccc1O [Salicylic acid, 2-hydroxybenzoic acid]?
**A.** solubility of salicylic acid ([1]; in C12-C15 alkyl benzoate): 4.8% w/w; solubility of salicylic acid ([1]; in glyceryl isostearate): 8.25% w/w; solubility of salicylic acid ([1]; in isostearic acid): 6.5% w/w; solubility of salicylic acid ([1]; in isostearyl alcohol): 9.9% w/w; solubility of salicylic acid ([1]; in oleic acid, observed for crystallization, by weight of acid in the solvent): 5.6% w/w; solubility of salicylic acid ([1]; in propylene glycol isostearate): 9.9% w/w; volume of alcohol in which 1 g dissolves ([2]; ethanol, 1 g dissolves in the stated volume): 2.7 mL; volume of ether in which 1 g dissolves ([2]; ether, 1 g in the stated volume): 3 mL; volume of water in which 1 g dissolves ([2]; water, 1 g in the stated volume): 460 mL
